Values of other authors in article PMC10202811 (Nature Medicine, 2023).

What was measured:
[1] = test system: inflammatory myofibroblastic tumors; conditions: cited from earlier work
[2] = test system: ALK-driven malignancies; parameters: method as in PMID 34780709; conditions: children, 6/30; cited from earlier work

For `C[C@@H](Oc1cc(-c2cnn(C3CCNCC3)c2)cnc1N)c1c(Cl)ccc(F)c1Cl` [crizotinib], the RR [1] is given as 86%.

For `Cc1cc(Nc2ncc(Cl)c(Nc3ccccc3S(=O)(=O)C(C)C)n2)c(OC(C)C)cc1C1CCNCC1` [ceritinib], the “RR (complete/partial)” value [2] is given as 20%.
